Experiments:
[1] = test system: PF-382; test: cells; assay type: functional, cell-based; settings: Homo sapiens
Description: SANGER: Inhibition of human PF-382 cell growth in a cell viability assay.

[2] = test system: YT; test: cells; assay type: functional, cell-based; settings: Homo sapiens
Description: SANGER: Inhibition of human YT cell growth in a cell viability assay.

[3] = test system: JIYOYE; test: cells; assay type: functional, cell-based; settings: Homo sapiens
Description: SANGER: Inhibition of human JiyoyeP-2003 cell growth in a cell viability assay.

[4] = test system: DMS-153; test: cells; assay type: functional, cell-based; settings: Homo sapiens
Description: SANGER: Inhibition of human DMS-153 cell growth in a cell viability assay.

[5] = test system: NB1; test: cells; assay type: functional, cell-based; settings: Homo sapiens
Description: SANGER: Inhibition of human NB1 cell growth in a cell viability assay.

[6] = test system: LU-165; test: cells; assay type: functional, cell-based; settings: Homo sapiens
Description: SANGER: Inhibition of human LU-165 cell growth in a cell viability assay.

[7] = test system: NCI-H187; test: cells; assay type: functional, cell-based; settings: Homo sapiens;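 further: growth inhibition of NCI-H187 cells, read out as cell viability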
Description: SANGER: Inhibition of human NCI-H187 cell growth in a cell viability assay.

[8] = test system: NCI-H2081; test: cells; assay type: functional, cell-based; settings: Homo sapiens;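 further: growth inhibition of human NCI-H2081 cells, read out with a cell viability assay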
Description: SANGER: Inhibition of human NCI-H2081 cell growth in a cell viability assay.

[9] = test system: K052; test: cells; assay type: functional, cell-based; settings: Homo sapiens;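 further: Read-out from a cell viability assay, IC50 reflecting suppression of K052 cell growth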
Description: SANGER: Inhibition of human K052 cell growth in a cell viability assay.

[10] = test system: P31-FUJ; test: cells; assay type: functional, cell-based; settings: Homo sapiens;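 further: growth inhibition of P31-FUJ cells, read out with a viability assay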
Description: SANGER: Inhibition of human P31-FUJ cell growth in a cell viability assay.

[11] = test system: MDA-MB-134-VI; test: cells; assay type: functional, cell-based; settings: Homo sapiens
Description: SANGER: Inhibition of human MDA-MB-134-VI cell growth in a cell viability assay.

[12] = test system: NCI-H719; test: cells; assay type: functional, cell-based; settings: Homo sapiens;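 further: growth inhibition of the cultured cell line, read out with a viability assay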
Description: SANGER: Inhibition of human NCI-H719 cell growth in a cell viability assay.

[13] = test system: SR; test: cells; assay type: functional, cell-based; settings: Homo sapiens
Description: SANGER: Inhibition of human SR cell growth in a cell viability assay.

[14] = test system: BL-41; test: cells; assay type: functional, cell-based; settings: Homo sapiens;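 further: growth inhibition of human BL-41 cells, read out with a cell viability assay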
Description: SANGER: Inhibition of human BL-41 cell growth in a cell viability assay.

[15] = test system: TE-441-T; test: cells; assay type: functional, cell-based; settings: Homo sapiens
Description: SANGER: Inhibition of human TE-441-T cell growth in a cell viability assay.

[16] = test system: CESS; test: SANGER: Inhibition of human CESS cell growth in a cell viability assay.; assay type: functional, cell-based
[17] = test system: CPC-N; test: cells; assay type: functional, cell-based; settings: Homo sapiens;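 further: growth inhibition of CPC-N cells, with a cell viability assay as the readout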
Description: SANGER: Inhibition of human CPC-N cell growth in a cell viability assay.

[18] = test system: LC4-1; test: cells; assay type: functional, cell-based; settings: Homo sapiens;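 further: growth inhibition of LC4-1 cells, read out with a cell viability assay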
Description: SANGER: Inhibition of human LC4-1 cell growth in a cell viability assay.

[19] = test system: NCI-H2171; test: cells; assay type: functional, cell-based; settings: Homo sapiens;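 further: growth inhibition of human NCI-H2171 cells, read out by a cell viability assay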
Description: SANGER: Inhibition of human NCI-H2171 cell growth in a cell viability assay.

[20] = test system: SK-MM-2; test: cells; assay type: functional, cell-based; settings: Homo sapiens;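 further: growth inhibition of human SK-MM-2 cells, read out with a cell viability assay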
Description: SANGER: Inhibition of human SK-MM-2 cell growth in a cell viability assay.

[21] = test system: SNU-16; test: cells; assay type: functional, cell-based; settings: Homo sapiens;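 further: growth inhibition of human SNU-16 cells, determined with a cell viability readout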
Description: SANGER: Inhibition of human NCI-SNU-16 cell growth in a cell viability assay.

[22] = test system: NCI-H64; test: cells; assay type: functional, cell-based; settings: Homo sapiens;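 further: growth inhibition of NCI-H64 cells, read out with a cell viability assay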
Description: SANGER: Inhibition of human NCI-H64 cell growth in a cell viability assay.

[23] = test system: NB12; test: cells; assay type: functional, cell-based; settings: Homo sapiens;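 further: growth inhibition of human NB12 cells, read out by a cell viability assay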
Description: SANGER: Inhibition of human NB12 cell growth in a cell viability assay.

[24] = test system: D-542MG; test: cells; assay type: functional, cell-based; settings: Homo sapiens
Description: SANGER: Inhibition of human D-542MG cell growth in a cell viability assay.

[25] = test system: UACC-812; test: cells; assay type: functional, cell-based; settings: Homo sapiens
Description: SANGER: Inhibition of human UACC-812 cell growth in a cell viability assay.

[26] = test system: RPMI-7951; test: cells; assay type: functional, cell-based; settings: Homo sapiens
Description: SANGER: Inhibition of human RPMI-7951 cell growth in a cell viability assay.

[27] = test system: UMUC3; test: cells; assay type: functional, cell-based; settings: Homo sapiens;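 further: growth inhibition of human UM-UC-3 cells, read out with a cell viability assay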
Description: SANGER: Inhibition of human UM-UC-3 cell growth in a cell viability assay.

[28] = test system: HSC-3; test: cells; assay type: functional, cell-based; settings: Homo sapiens
Description: SANGER: Inhibition of human HSC-3 cell growth in a cell viability assay.

[29] = test system: J82; test: cells; assay type: functional, cell-based; settings: Homo sapiens;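 further: growth inhibition of J82 cells, read out with a cell viability assay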
Description: SANGER: Inhibition of human J82 cell growth in a cell viability assay.

[30] = test system: M14; test: cells; assay type: functional, cell-based; settings: Homo sapiens;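 further: growth inhibition of M14 cells, read out with a cell viability assay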
Description: SANGER: Inhibition of human M14 cell growth in a cell viability assay.

[31] = test system: OAW-42; test: cells; assay type: functional, cell-based; settings: Homo sapiens;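 further: growth inhibition of OAW-42 cells, read out with a cell viability assay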
Description: SANGER: Inhibition of human OAW-42 cell growth in a cell viability assay.

[32] = test system: KYSE-410; test: cells; assay type: functional, cell-based; settings: Homo sapiens;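 further: growth inhibition of KYSE-410 cells, measured through a cell viability readout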
Description: SANGER: Inhibition of human KYSE-410 cell growth in a cell viability assay.

[33] = test system: BFTC-909; test: cells; assay type: functional, cell-based; settings: Homo sapiens
Description: SANGER: Inhibition of human BFTC-909 cell growth in a cell viability assay.

[34] = test system: LU-99A; test: cells; assay type: functional, cell-based; settings: Homo sapiens;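 further: growth inhibition of LU-99A cells, read out with a cell viability assay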
Description: SANGER: Inhibition of human LU-99A cell growth in a cell viability assay.

[35] = test system: OVCAR-3; test: cells; assay type: functional, cell-based; settings: Homo sapiens;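 further: growth inhibition of human OVCAR-3 cells, determined by a cell viability assay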
Description: SANGER: Inhibition of human OVCAR-3 cell growth in a cell viability assay.

[36] = test system: MDA-MB-453; test: cells; assay type: functional, cell-based; settings: Homo sapiens
Description: SANGER: Inhibition of human MDA-MB-453 cell growth in a cell viability assay.

[37] = test system: LCLC-97TM1; test: cells; assay type: functional, cell-based; settings: Homo sapiens;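 further: cell viability assay measuring growth inhibition of human LCLC-97TM1 cells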
Description: SANGER: Inhibition of human LCLC-97TM1 cell growth in a cell viability assay.

[38] = test system: NCI-H1993; test: cells; assay type: functional, cell-based; settings: Homo sapiens;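 further: growth inhibition of the cancer cell line, assessed with a cell viability assay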
Description: SANGER: Inhibition of human NCI-H1993 cell growth in a cell viability assay.

[39] = test system: EGI-1; test: cells; assay type: functional, cell-based; settings: Homo sapiens;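 further: cell viability readout used to gauge growth inhibition of EGI-1 cells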
Description: SANGER: Inhibition of human EGI-1 cell growth in a cell viability assay.

[40] = test system: BT-20; test: cells; assay type: functional, cell-based; settings: Homo sapiens;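 further: cell viability assay measuring suppression of growth in human BT-20 cells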
Description: SANGER: Inhibition of human BT-20 cell growth in a cell viability assay.

[41] = test system: GMS-10; test: cells; assay type: functional, cell-based; settings: Homo sapiens;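 further: growth inhibition of GMS-10 cells, read out as cell viability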
Description: SANGER: Inhibition of human GMS-10 cell growth in a cell viability assay.

[42] = test system: Ca9-22; test: cells; assay type: functional, cell-based; settings: Homo sapiens;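 further: growth inhibition of Ca9-22 cells, read out with a cell viability assay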
Description: SANGER: Inhibition of human Ca9-22 cell growth in a cell viability assay.

[43] = test system: AGS; test: cells; assay type: functional, cell-based; settings: Homo sapiens;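 further: growth inhibition of AGS cells, determined with a cell viability assay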
Description: SANGER: Inhibition of human AGS cell growth in a cell viability assay.

[44] = test system: YAPC; test: cells; assay type: functional, cell-based; settings: Homo sapiens;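 further: growth inhibition of YAPC cells, measured with a cell viability assay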
Description: SANGER: Inhibition of human YAPC cell growth in a cell viability assay.

[45] = test system: NCI-H1693; test: cells; assay type: functional, cell-based; settings: Homo sapiens;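 further: growth inhibition of the human cell line, read out with a cell viability assay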
Description: SANGER: Inhibition of human NCI-H1693 cell growth in a cell viability assay.

[46] = test system: TYK-nu; test: cells; assay type: functional, cell-based; settings: Homo sapiens;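 further: growth inhibition of human TYK-nu cells, read out by a cell viability assay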
Description: SANGER: Inhibition of human TYK-nu cell growth in a cell viability assay.

[47] = test system: HuP-T4; test: cells; assay type: functional, cell-based; settings: Homo sapiens;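 further: cell viability assay measuring how much HuP-T4 cell growth is inhibited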
Description: SANGER: Inhibition of human HuP-T4 cell growth in a cell viability assay.

[48] = test system: A2058; test: cells; assay type: functional, cell-based; settings: Homo sapiens;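 further: reduction of A2058 cell growth, read out with a viability assay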
Description: SANGER: Inhibition of human A2058 cell growth in a cell viability assay.

[49] = test system: MDA-MB-157; test: cells; assay type: functional, cell-based; settings: Homo sapiens
Description: SANGER: Inhibition of human MDA-MB-157 cell growth in a cell viability assay.

[50] = test system: CAKI-1; test: cells; assay type: functional, cell-based; settings: Homo sapiens;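 further: growth inhibition of CAKI-1 cells, measured by a cell viability assay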
Description: SANGER: Inhibition of human CAKI-1 cell growth in a cell viability assay.

[51] = test system: C32; test: cells; assay type: functional, cell-based; settings: Homo sapiens;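 further: cell viability assay, with IC50 reflecting inhibition of C32 cell growth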
Description: SANGER: Inhibition of human C32 cell growth in a cell viability assay.

[52] = test system: H4; test: cells; assay type: functional, cell-based; settings: Homo sapiens
Description: SANGER: Inhibition of human H4 cell growth in a cell viability assay.

[53] = test system: NUGC-3; test: cells; assay type: functional, cell-based; settings: Homo sapiens;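 further: growth inhibition of human NUGC-3 cells, read out with a cell viability assay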
Description: SANGER: Inhibition of human NUGC-3 cell growth in a cell viability assay.

[54] = test system: SK-HEP1; test: cells; assay type: functional, cell-based, SK-HEP-1; settings: Homo sapiens;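 further: cell viability readout used to quantify reduction in proliferation of human SK-HEP-1 cells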
Description: SANGER: Inhibition of human SK-HEP-1 cell growth in a cell viability assay.

[55] = test system: U-251; test: cells; assay type: functional, cell-based; settings: Homo sapiens;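 further: growth inhibition of human U-251 cells, read out through a cell viability assay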
Description: SANGER: Inhibition of human U251 cell growth in a cell viability assay.

[56] = test system: RERF-LC-MS; test: cells; assay type: functional, cell-based; settings: Homo sapiens;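 further: growth inhibition of human RERF-LC-MS cells, read out by a cell viability assay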
Description: SANGER: Inhibition of human RERF-LC-MS cell growth in a cell viability assay.

[57] = test system: Capan-2; test: cells; assay type: functional, cell-based; settings: Homo sapiens;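 further: Capan-2 cell growth inhibition, read out with a viability assay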
Description: SANGER: Inhibition of human Capan-2 cell growth in a cell viability assay.

[58] = test system: NCI-H2030; test: cells; assay type: functional, cell-based; settings: Homo sapiens;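 further: growth inhibition of human NCI-H2030 cells, read out by a cell viability assay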
Description: SANGER: Inhibition of human NCI-H2030 cell growth in a cell viability assay.

[59] = test system: NCI-H810; test: cells; assay type: functional, cell-based; settings: Homo sapiens;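 further: IC50 reflects inhibition of cancer cell line growth, read out with a cell viability assay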
Description: SANGER: Inhibition of human NCI-H810 cell growth in a cell viability assay.

[60] = test system: MEL-JUSO; test: cells; assay type: functional, cell-based; settings: Homo sapiens;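 further: growth inhibition of human MEL-JUSO cells, read out with a cell viability assay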
Description: SANGER: Inhibition of human MEL-JUSO cell growth in a cell viability assay.

[61] = test system: OE19; test: cells; assay type: functional, cell-based; settings: Homo sapiens;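 further: growth inhibition of OE19 cells, measured through a cell viability read-out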
Description: SANGER: Inhibition of human OE19 cell growth in a cell viability assay.

[62] = test system: KYSE-140; test: cells; assay type: functional, cell-based; settings: Homo sapiens;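 further: cell viability assay measuring growth inhibition in human KYSE-140 cells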
Description: SANGER: Inhibition of human KYSE-140 cell growth in a cell viability assay.

[63] = test system: COLO-680N; test: cells; assay type: functional, cell-based; settings: Homo sapiens;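 further: cell viability assay used to measure inhibition of COLO-680N cell growth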
Description: SANGER: Inhibition of human COLO-680N cell growth in a cell viability assay.

[64] = test system: G-402; test: cells; assay type: functional, cell-based; settings: Homo sapiens
Description: SANGER: Inhibition of human G-402 cell growth in a cell viability assay.

COc1cc(C)c(Sc2cnc(NC(=O)c3ccc(CNC(C)C(C)(C)C)cc3)s2)cc1C(=O)N1CCN(C(C)=O)CC1 (stereo not given)
IC50 [1]: > 10.2 µM | IC50 [2]: > 10.2 µM | IC50 [3]: > 10.2 µM | IC50 [4]: > 10.2 µM | IC50 [5]: > 10.2 µM | IC50 [6]: > 10.2 µM | IC50 [7]: > 10.2 µM | IC50 [8]: > 10.2 µM | IC50 [9]: > 10.2 µM | IC50 [10]: > 10.2 µM | IC50 [11]: > 10.2 µM | IC50 [12]: > 10.2 µM | IC50 [13]: > 10.2 µM | IC50 [14]: > 10.2 µM | IC50 [15]: > 10.2 µM | IC50 [16]: > 10.2 µM | IC50 [17]: > 10.2 µM | IC50 [18]: > 10.2 µM | IC50 [19]: > 10.2 µM | IC50 [20]: > 10.2 µM | IC50 [21]: > 10.2 µM | IC50 [22]: > 10.2 µM

Cc1ccc(NC(=O)c2cccc(C(C)(C)C#N)c2)cc1Nc1ccc2ncn(C)c(=O)c2c1
IC50 [23]: > 4 µM | IC50 [1]: 3.05 µM | IC50 [2]: > 4 µM | IC50 [3]: > 4 µM | IC50 [4]: > 4 µM | IC50 [5]: > 4 µM | IC50 [6]: > 4 µM | IC50 [7]: > 4 µM | IC50 [8]: > 4 µM | IC50 [24]: > 4 µM | IC50 [10]: > 4 µM | IC50 [11]: > 4 µM | IC50 [12]: > 4 µM | IC50 [13]: > 4 µM | IC50 [14]: > 4 µM | IC50 [15]: 2.81 µM | IC50 [25]: > 4 µM | IC50 [16]: > 4 µM | IC50 [17]: > 4 µM | IC50 [18]: > 4 µM | IC50 [19]: > 4 µM | IC50 [20]: > 4 µM | IC50 [21]: > 4 µM | IC50 [22]: > 4 µM

O=c1[nH]c2ccccc2n1C1CCN(Cc2ccc(-c3nc4cc5[nH]cnc5cc4nc3-c3ccccc3)cc2)CC1
IC50 [26]: > 2.56 µM | IC50 [23]: > 2.56 µM | IC50 [27]: > 2.56 µM | IC50 [28]: > 2.56 µM | IC50 [1]: > 2.56 µM | IC50 [29]: > 2.56 µM | IC50 [30]: > 2.56 µM | IC50 [31]: > 2.56 µM | IC50 [32]: > 2.56 µM | IC50 [2]: > 2.56 µM | IC50 [33]: > 2.56 µM | IC50 [3]: > 2.56 µM | IC50 [34]: > 2.56 µM | IC50 [35]: 1.84 µM | IC50 [4]: > 2.56 µM | IC50 [36]: > 2.56 µM | IC50 [37]: 2.3 µM | IC50 [38]: > 2.56 µM | IC50 [5]: > 2.56 µM | IC50 [39]: > 2.56 µM | IC50 [40]: > 2.56 µM | IC50 [41]: > 2.56 µM | IC50 [42]: > 2.56 µM | IC50 [6]: > 2.56 µM | IC50 [7]: > 2.56 µM | IC50 [8]: > 2.56 µM | IC50 [43]: > 2.56 µM | IC50 [44]: > 2.56 µM | IC50 [9]: > 2.56 µM | IC50 [45]: > 2.56 µM | IC50 [24]: > 2.56 µM | IC50 [46]: > 2.56 µM | IC50 [47]: > 2.56 µM | IC50 [48]: > 2.56 µM | IC50 [10]: > 2.56 µM | IC50 [11]: > 2.56 µM | IC50 [49]: > 2.56 µM | IC50 [12]: > 2.56 µM | IC50 [50]: > 2.56 µM | IC50 [51]: > 2.56 µM | IC50 [13]: > 2.56 µM | IC50 [14]: > 2.56 µM | IC50 [15]: > 2.56 µM | IC50 [25]: > 2.56 µM | IC50 [16]: > 2.56 µM | IC50 [52]: > 2.56 µM | IC50 [53]: > 2.56 µM | IC50 [17]: > 2.56 µM | IC50 [18]: > 2.56 µM | IC50 [54]: > 2.56 µM | IC50 [19]: > 2.56 µM | IC50 [20]: > 2.56 µM | IC50 [55]: > 2.56 µM | IC50 [56]: > 2.56 µM | IC50 [21]: > 2.56 µM | IC50 [57]: > 2.56 µM | IC50 [22]: > 2.56 µM | IC50 [58]: 1.94 µM | IC50 [59]: > 2.56 µM | IC50 [60]: > 2.56 µM | IC50 [61]: > 2.56 µM | IC50 [62]: > 2.56 µM | IC50 [63]: > 2.56 µM | IC50 [64]: 1.78 µM

Reference: ChEMBL document CHEMBL1201861, “Genomics of Drug Sensitity in Cancer screening data, Wellcome Trust Sanger Institute”
